Source: BigSolDB 2.1

O=C1NC(=O)c2ccccc21
solubility (mole fraction)
Settings	in acetone	in acetonitrile	in ethanol	in ethyl acetate	in isobutanol	in isopropanol	in methanol	in n-butanol	in n-propanol	in toluene
283.15 K	0.00783	0.00145	0.00116	0.00388	0.0014	0.00159	0.00129	0.00166	0.00156	0.000253
285.65 K	0.00854	0.00161	0.00133	0.00441	0.00155	0.00175	0.00142	0.00185	0.00173	0.000295
288.15 K	0.00935	0.0018	0.00151	0.00498	0.00171	0.00198	0.00162	0.00203	0.00188	0.000348
290.65 K	0.0101	0.00209	0.0017	0.00557	0.0019	0.0022	0.00183	0.00221	0.00203	0.000401
293.15 K	0.011	0.00238	0.00193	0.00615	0.00206	0.00247	0.0021	0.00243	0.00222	0.000456
295.65 K	0.0119	0.00271	0.00215	0.00677	0.00222	0.0027	0.00236	0.00266	0.00242	0.000514
298.15 K	0.0128	0.00305	0.0024	0.00749	0.00242	0.00298	0.0026	0.00285	0.00263	0.000577
300.15 K	0.0137	0.00335	0.0026	0.00813	0.0026	0.0033	0.00288	0.00308	0.00282	0.000624
303.15 K	0.0149	0.00385	0.00302	0.00879	0.00292	0.00365	0.00317	0.00336	0.00308	0.000694
305.65 K	0.0159	0.0043	0.00335	0.0097	0.00315	0.00402	0.00346	0.00362	0.00339	0.000756
308.15 K	0.017	0.00472	0.00369	0.0105	0.0034	0.00438	0.00373	0.00393	0.00369	0.000828
310.65 K	0.0181	0.00518	0.00409	0.0114	0.00368	0.00479	0.00405	0.00424	0.00399	0.0009
313.15 K	0.0194	0.00577	0.00462	0.0125	0.00398	0.00523	0.00445	0.00456	0.0043	0.000969
315.65 K	0.0209	0.00631	0.00523	0.0138	0.00428	0.00575	0.00483	0.0049	0.00466	0.00105
318.15 K	0.0221	0.00686	0.00582	0.0152	0.00469	0.00632	0.00525	0.0054	0.005	0.00114
